Six compounds from PMC10485906, “Development of a Dihydroquinoline–Pyrazoline GluN2C/2D-Selective Negative Allosteric Modulator of the N-Methyl-D-aspartate Receptor” (ACS Chemical Neuroscience, 2023) can be followed below.

Holding throughout (type): cell-based
The target of assay [1] is GluN1/GluN2C (Rattus norvegicus, UniProt P35439+Q00961). Kind of assay: Two-electrode voltage-clamp recordings, Xenopus laevis oocytes, GluN1/GluN2C. More on the design: GluN2B (NM_012574.1), GluN2C (NM_012575.3), and GluN2D (NM_022797.2) were provided by; expressed in transfected cells; host or cells: Xenopus laevis oocytes (cRNA injection). The following applies: 100 μM glutamate, 30 μM glycine; for IC50: read-out: IC50 GluN2C [95% CI]; for remaining activity at 30 µM: 30 μM test compound, mean ± SEM, read-out: I 30 μM / I control GluN2C. Here is the method:
(§1) All target compounds were evaluated for NMDAR antagonism using two-electrode voltage-clamp recordings from Xenopus laevis oocytes coexpressing recombinant GluN1 and GluN2A-D subunits (Table 1).[32],[42],[33] All analogues were assessed as either a racemic (2b, 2e–2r) or diastereomeric (2d) mixture to simplify purification and streamline in vitro analysis. […] Moreover, as illustrated by the significant loss of NMDAR activity observed with nitrile 2e, the DQP allosteric site necessitated an H-bond donor/acceptor relationship at the carboxylate position. […] The loss of NMDAR activity observed with the trifluoro analogue 2j (Table S1) reinforced the necessity for an H-bond donor/acceptor relationship to maintain allosteric binding and established that fluorine substitution alone is ineffective. […] A single methyl substitution of the amide in compound 2q improved selectivity against GluN2A and had similar potency as 2a, whereas dual methyl substitution reduced potency (2r). We expect that this is likely due to the ability of the […] of the amide to accept hydrogen bonds while the amide can readily donate a proton.
(§2) Unfertilized Xenopus laevis oocytes were obtained from Ecocyte (Austin, TX), or ovaries were purchased from Xenopus 1 (Dexter, MI) and oocytes prepared as previously described.[42],[47] Two-electrode voltage-clamp recordings were performed on oocytes expressing recombinant rat GluN1/GluN2A, GluN1/GluN2B, GluN1/GluN2C, or GluN1/GluN2D. cDNAs for rat GluN1-1a (referred to as GluN1; NCBI Reference Sequence NM_017010.2), GluN2A (NM_012573.4), GluN2B (NM_012574.1), GluN2C (NM_012575.3), and GluN2D (NM_022797.2) were provided by Dr. S. Heinemann from the Salk Institute, Dr. S. Nakanishi from Kyoto University, and Dr. P. Seeburg from the University of Heidelberg. Oocyte isolation, cRNA synthesis, and cRNA injections were performed as previously described.[32],[33],[47] Briefly, Xenopus laevis oocytes were injected with 5–10 ng of cRNA in RNase-free water with the GluN1:GluN2 ratio ranging from 1:1 to 1:5. Oocytes were incubated at 15–19 °C in Barth’s solution consisting of (in mM) 88 NaCl, 1 KCl, 2.4 NaHCO3, 10 HEPES, 0.82 MgSO4, 0.33 Ca(NO3)2, and 0.41 CaCl2 supplemented with 100 μg/mL gentamycin, 40 μg/mL streptomycin, and 50 μg/mL penicillin. Recordings were performed 2–4 days after injection with extracellular recording solution containing (in mM) 90 NaCl, 1 KCl, 10 HEPES, 0.5 BaCl2, and 0.01 EDTA at pH 7.4 adjusted with NaOH. To prevent a gradual increase in current response over the course of the experiment, some oocytes expressing GluN1/GluN2A were injected with 20–50 nL of 2–50 mM K-BAPTA. Concentration–response curves for test compounds were generated by applying a maximally effective concentration of glutamate (100 μM) and glycine (30 μM), followed by glutamate and glycine with variable concentrations of test compounds up to 30 μM. The test compounds were prepared as 20 mM stock solutions in DMSO and diluted to the final concentration in recording solution. The DMSO content was 0.05–0.5% (v/v). […] Methods for off-target analysis are given in the Supporting Information.
(§3) Confidence intervals were determined for the log(IC50). The time course of relaxation during inhibitor application or deactivation following rapid removal of NMDA or glutamate was fitted by the equation [drawing 5] 2

Assay [2] has as its target GluN1/GluN2C (Rattus norvegicus, UniProt Q00961). Described as above. More on the design: GluN2B (NM_012574.1), GluN2C (NM_012575.3), and GluN2D (NM_022797.2) were provided by; expressed in transfected cells; host or cells: Xenopus laevis oocytes (cRNA injection). The conditions noted are these: 100 μM glutamate, 30 μM glycine, mean ± SEM. The protocol: as §1, §2, §3
The target of assay [3] is T1, GluN1/GluN2B (Rattus norvegicus, UniProt P35439+Q00960).
T1 construct: GluN2B (NM_012574.1), GluN2C (NM_012575.3), and GluN2D (NM_022797.2) were provided by; expressed in transfected cells; host or cells: Xenopus laevis oocytes (cRNA injection)
T1 sequence (Q00960 27-1482, other chains not shown): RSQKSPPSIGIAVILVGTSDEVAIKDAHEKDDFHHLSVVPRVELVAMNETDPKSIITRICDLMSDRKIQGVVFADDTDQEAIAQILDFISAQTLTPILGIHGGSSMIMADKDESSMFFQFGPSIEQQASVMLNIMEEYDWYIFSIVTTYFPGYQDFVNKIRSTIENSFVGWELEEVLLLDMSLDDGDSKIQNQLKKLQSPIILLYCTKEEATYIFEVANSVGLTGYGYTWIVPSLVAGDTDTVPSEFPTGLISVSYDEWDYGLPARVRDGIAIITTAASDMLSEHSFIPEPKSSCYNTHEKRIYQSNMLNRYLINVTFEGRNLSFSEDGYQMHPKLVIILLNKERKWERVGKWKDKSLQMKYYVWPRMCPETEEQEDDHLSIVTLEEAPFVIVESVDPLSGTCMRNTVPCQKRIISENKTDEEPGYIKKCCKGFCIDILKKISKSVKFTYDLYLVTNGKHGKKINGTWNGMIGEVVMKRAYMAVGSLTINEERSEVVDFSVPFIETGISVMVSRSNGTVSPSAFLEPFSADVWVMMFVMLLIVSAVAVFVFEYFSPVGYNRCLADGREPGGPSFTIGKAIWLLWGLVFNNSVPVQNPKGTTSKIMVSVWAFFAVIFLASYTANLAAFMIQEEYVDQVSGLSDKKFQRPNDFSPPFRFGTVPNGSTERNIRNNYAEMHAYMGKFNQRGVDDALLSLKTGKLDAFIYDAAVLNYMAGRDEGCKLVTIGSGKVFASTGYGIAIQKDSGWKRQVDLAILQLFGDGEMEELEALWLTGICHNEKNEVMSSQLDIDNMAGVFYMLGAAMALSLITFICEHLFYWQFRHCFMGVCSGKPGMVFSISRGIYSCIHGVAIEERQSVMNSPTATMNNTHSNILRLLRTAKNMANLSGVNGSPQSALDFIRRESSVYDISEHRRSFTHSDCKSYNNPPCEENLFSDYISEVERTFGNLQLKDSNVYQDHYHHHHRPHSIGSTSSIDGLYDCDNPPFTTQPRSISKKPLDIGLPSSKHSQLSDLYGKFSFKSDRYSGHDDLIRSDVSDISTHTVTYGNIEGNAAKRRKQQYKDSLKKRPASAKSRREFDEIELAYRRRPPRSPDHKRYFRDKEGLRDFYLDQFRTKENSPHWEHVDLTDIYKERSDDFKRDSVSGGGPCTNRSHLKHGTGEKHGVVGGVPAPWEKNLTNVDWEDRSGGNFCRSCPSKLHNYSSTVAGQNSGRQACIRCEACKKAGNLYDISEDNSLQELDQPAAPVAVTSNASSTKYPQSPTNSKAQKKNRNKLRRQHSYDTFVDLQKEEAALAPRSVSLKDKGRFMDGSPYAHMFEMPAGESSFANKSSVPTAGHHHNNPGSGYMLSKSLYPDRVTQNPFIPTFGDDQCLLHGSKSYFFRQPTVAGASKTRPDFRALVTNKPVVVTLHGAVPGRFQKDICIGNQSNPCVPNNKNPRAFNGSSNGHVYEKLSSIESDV
Kind of assay: Two-electrode voltage-clamp recordings, Xenopus laevis oocytes, GluN1/GluN2B. The conditions noted are these: 100 μM glutamate, 30 μM glycine; for remaining activity at 30 µM: 30 μM test compound, mean ± SEM, read-out: I 30 μM / I control GluN2B; for IC50: read-out: IC50 GluN2B [95% CI]. Here is the method:
as §1, §2, §3
Background: Two-electrode voltage clamp holds a large cell at a set potential and records current.

Assay [4] has as its target GluN1/GluN2D (Rattus norvegicus, UniProt P35439+Q62645). Kind of assay: Two-electrode voltage-clamp recordings, Xenopus laevis oocytes, GluN1/GluN2D. The following applies: 100 μM glutamate, 30 μM glycine; for IC50: read-out: IC50 GluN2D [95% CI]; for remaining activity at 30 µM: 30 μM test compound, mean ± SEM, read-out: I 30 μM / I control GluN2D. More on the design: GluN2B (NM_012574.1), GluN2C (NM_012575.3), and GluN2D (NM_022797.2) were provided by; expressed in transfected cells; host or cells: Xenopus laevis oocytes (cRNA injection). Here is the method: as §1, §2, §3

Assay [5] addresses GluN1/GluN2D (Rattus norvegicus, UniProt Q62645). The description is as above. More on the design: GluN2B (NM_012574.1), GluN2C (NM_012575.3), and GluN2D (NM_022797.2) were provided by; expressed in transfected cells; host or cells: Xenopus laevis oocytes (cRNA injection). The conditions noted are these: for Selectivity 2A IC50 / 2D IC50: GluN2D over GluN2A; for Selectivity 2B IC50 / 2D IC50: GluN2D over GluN2B. The protocol:
as §1, §2, §3

The target in assay [6] is T2, GluN1/GluN2A (Rattus norvegicus, UniProt P35439+Q00959).
T2 construct: expressed in transfected cells; host or cells: Xenopus laevis oocytes (cRNA injection)
T2 sequence (Q00959 23-1464, other chains not shown): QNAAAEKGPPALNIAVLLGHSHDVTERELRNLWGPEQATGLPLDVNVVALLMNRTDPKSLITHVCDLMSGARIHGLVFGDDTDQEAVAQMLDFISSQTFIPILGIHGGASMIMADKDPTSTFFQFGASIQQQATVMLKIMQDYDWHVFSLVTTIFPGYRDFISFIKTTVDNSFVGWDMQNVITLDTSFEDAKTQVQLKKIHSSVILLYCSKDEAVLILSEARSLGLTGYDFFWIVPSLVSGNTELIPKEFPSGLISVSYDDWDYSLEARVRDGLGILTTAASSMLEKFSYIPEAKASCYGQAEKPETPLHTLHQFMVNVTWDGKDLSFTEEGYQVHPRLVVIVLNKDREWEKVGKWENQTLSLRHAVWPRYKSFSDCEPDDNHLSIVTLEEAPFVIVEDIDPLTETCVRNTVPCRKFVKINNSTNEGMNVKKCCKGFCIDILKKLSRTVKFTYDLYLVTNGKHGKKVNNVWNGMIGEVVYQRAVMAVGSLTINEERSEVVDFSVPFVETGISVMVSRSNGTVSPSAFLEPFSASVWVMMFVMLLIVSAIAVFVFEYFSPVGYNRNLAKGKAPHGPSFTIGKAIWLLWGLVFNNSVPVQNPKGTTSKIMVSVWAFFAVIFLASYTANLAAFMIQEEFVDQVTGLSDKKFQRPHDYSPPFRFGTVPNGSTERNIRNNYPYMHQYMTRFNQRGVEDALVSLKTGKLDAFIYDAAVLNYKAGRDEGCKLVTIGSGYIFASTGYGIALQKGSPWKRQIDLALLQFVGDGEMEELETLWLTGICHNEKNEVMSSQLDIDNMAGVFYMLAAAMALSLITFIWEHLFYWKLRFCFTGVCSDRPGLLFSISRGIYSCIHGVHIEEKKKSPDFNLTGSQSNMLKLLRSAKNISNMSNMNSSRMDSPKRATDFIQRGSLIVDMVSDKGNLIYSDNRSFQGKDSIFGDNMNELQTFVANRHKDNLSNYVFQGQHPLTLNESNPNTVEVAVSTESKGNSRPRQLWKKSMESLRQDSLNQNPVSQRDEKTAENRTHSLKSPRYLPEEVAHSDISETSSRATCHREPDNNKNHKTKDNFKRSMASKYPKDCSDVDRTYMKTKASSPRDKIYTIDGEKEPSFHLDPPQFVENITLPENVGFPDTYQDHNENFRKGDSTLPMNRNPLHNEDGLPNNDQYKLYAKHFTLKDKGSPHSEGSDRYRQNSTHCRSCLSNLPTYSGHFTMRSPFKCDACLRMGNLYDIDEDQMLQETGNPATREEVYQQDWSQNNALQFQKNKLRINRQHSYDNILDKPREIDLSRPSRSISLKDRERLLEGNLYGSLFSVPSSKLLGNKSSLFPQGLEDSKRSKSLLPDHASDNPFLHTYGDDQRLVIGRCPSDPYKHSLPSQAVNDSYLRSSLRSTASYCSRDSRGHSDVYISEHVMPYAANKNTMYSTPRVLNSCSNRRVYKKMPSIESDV
The assay can be described thus: Two-electrode voltage-clamp recordings, Xenopus laevis oocytes, GluN1/GluN2A. The following applies: 100 μM glutamate, 30 μM glycine; for IC50: read-out: IC50 GluN2A [95% CI]; for remaining activity at 30 µM: 30 μM test compound, mean ± SEM, read-out: I 30 μM / I control GluN2A. Here is the method: as §1, §2, §3

Assay [7] deals with T3, GluN1/GluN2B (Rattus norvegicus, UniProt Q00960).
T3 construct: GluN2B (NM_012574.1), GluN2C (NM_012575.3), and GluN2D (NM_022797.2) were provided by; expressed in transfected cells; host or cells: Xenopus laevis oocytes (cRNA injection)
Kind of assay: Two-electrode voltage-clamp recordings, Xenopus laevis oocytes, GluN1/GluN2B. The following applies: tested at 3 μM; 100 μM glutamate, 30 μM glycine; mean ± SEM. Here is the method:
as §1, §2, §3

The target in assay [8] is T4, GluN1/GluN2A (Rattus norvegicus, UniProt Q00959).
T4 construct: expressed in transfected cells; host or cells: Xenopus laevis oocytes (cRNA injection)
The assay can be described thus: Two-electrode voltage-clamp recordings, Xenopus laevis oocytes, GluN1/GluN2A. The following applies: tested at 3 μM; 100 μM glutamate, 30 μM glycine; mean ± SEM. The protocol: as §1, §2, §3

Chain of GluN1/GluN2C (Rattus norvegicus, UniProt P35439+Q00961) (Q00961 20-1237, other chains not shown): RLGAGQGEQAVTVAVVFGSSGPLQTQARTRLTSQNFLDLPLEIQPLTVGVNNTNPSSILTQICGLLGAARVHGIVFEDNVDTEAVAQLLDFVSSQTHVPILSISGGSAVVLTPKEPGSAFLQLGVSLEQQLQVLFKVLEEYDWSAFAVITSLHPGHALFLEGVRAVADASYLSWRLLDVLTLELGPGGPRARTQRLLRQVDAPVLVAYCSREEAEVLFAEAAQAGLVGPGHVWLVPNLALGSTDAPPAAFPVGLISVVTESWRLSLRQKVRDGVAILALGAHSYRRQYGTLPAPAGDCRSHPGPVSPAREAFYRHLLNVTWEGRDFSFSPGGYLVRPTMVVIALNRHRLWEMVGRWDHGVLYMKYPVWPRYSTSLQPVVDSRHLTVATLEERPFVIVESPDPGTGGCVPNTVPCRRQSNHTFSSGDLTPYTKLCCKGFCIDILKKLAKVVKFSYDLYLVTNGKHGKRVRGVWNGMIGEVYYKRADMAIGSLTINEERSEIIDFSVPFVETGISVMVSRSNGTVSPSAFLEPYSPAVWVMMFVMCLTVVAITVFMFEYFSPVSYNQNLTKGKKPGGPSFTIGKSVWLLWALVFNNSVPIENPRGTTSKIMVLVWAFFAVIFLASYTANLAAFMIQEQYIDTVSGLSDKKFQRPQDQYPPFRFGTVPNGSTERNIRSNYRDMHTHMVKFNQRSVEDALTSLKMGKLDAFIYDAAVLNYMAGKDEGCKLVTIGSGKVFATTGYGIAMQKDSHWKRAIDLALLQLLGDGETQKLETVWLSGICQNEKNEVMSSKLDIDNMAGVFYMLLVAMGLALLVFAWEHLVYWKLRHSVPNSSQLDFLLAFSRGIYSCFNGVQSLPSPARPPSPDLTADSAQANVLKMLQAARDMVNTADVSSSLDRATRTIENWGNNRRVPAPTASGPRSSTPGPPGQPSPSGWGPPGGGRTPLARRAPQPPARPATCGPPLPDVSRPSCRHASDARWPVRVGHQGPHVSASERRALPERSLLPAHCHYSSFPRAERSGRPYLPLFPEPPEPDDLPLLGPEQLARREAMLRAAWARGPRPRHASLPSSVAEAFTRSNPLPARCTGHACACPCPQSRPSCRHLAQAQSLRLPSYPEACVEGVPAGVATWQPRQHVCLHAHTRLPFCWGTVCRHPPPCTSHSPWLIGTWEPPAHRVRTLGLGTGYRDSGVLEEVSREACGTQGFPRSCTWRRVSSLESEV
Chain of GluN1/GluN2C (Rattus norvegicus, UniProt Q00961) (Q00961 20-1237, other chains not shown): as above

Usually IC50 stands for the concentration that inhibits the measured activity by half. Regarding `O=C(O)CCCC(=O)N1N=C(c2c(-c3ccc(Cl)cc3)c3ccccc3[nH]c2=O)CC1c1ccc(Cl)cc1` (stereo not drawn) [2b], the IC50 at GluN1/GluN2C [1] worked out at 0.9 µM; on GluN1/GluN2B [3], 37 µM; on GluN1/GluN2D [4], 0.64 µM; on GluN1/GluN2A [6], 25 µM. Also, the “I / I control GluN2C” value on GluN1/GluN2C [2] (tested at 10 μM (footnote b)) is reported as 13 ± 1.3 ^b (1,8) %. At GluN1/GluN2B [3], the remaining activity at 30 µM was 57 ± 2.6%. For the same compound, the “Selectivity 2A IC50 / 2D IC50” value at GluN1/GluN2D [5] came to 39 fold. The “Selectivity 2B IC50 / 2D IC50” value at GluN1/GluN2D [5] was found to be 58 fold. Moreover, at GluN1/GluN2D [5] (tested at 10 μM (footnote b), 100 μM glutamate, 30 μM glycine, mean ± SEM), the “I / I control GluN2D” value is listed as 5.9 ± 1.6 ^b (1,8) %.
With `N[C@@H](CCC(=O)N1N=C(c2c(-c3ccc(Cl)cc3)c3ccccc3[nH]c2=O)CC1c1ccc(Cl)cc1)C(=O)O` (stereo partly drawn) [2d], the remaining activity at 30 µM at GluN1/GluN2C [1] turned out to be 16 ± 5%; at GluN1/GluN2B [3] it was 48 ± 4%; on GluN1/GluN2D [4], 3.1 ± 0.59%; at GluN1/GluN2A [6], 36 ± 5.2%. For the same compound, the IC50 was 2.1 µM at GluN1/GluN2C [1], 21 µM on GluN1/GluN2B [3], 1.1 µM on GluN1/GluN2D [4] and 15 µM on GluN1/GluN2A [6]. Moreover, on GluN1/GluN2D [5], the “Selectivity 2A IC50 / 2D IC50” value is reported as 14 fold. In addition, the “Selectivity 2B IC50 / 2D IC50” value on GluN1/GluN2D [5] was found to be 19 fold.
Regarding `N#CCCC(=O)N1N=C(c2c(-c3ccc(Cl)cc3)c3ccccc3[nH]c2=O)CC1c1ccc(Cl)cc1` (stereo not drawn) [2e], the remaining activity at 30 µM on GluN1/GluN2C [1] is 67 ± 2.6%; on GluN1/GluN2B [3], 82 ± 2.4%; at GluN1/GluN2D [4], 46 ± 5%; at GluN1/GluN2A [6], 94 ± 1.4%. Besides, the IC50 came out at 99 µM on GluN1/GluN2C [1] and 28 µM at GluN1/GluN2D [4].
Turning to `O=C(CCc1nnn[nH]1)N1N=C(c2c(-c3ccc(Cl)cc3)c3ccccc3[nH]c2=O)CC1c1ccc(Cl)cc1` (stereo not drawn) [2h], the remaining activity at 30 µM amounted to 2.3 ± 0.5% at GluN1/GluN2C [1], 48 ± 1.9% on GluN1/GluN2B [3], 2.4 ± 0.56% at GluN1/GluN2D [4] and 29 ± 4.1% at GluN1/GluN2A [6]. Further, the IC50 on GluN1/GluN2C [1] is 0.57 µM; at GluN1/GluN2B [3], 29 µM; on GluN1/GluN2D [4], 0.52 µM; at GluN1/GluN2A [6], 22 µM. For the same compound, the “Selectivity 2A IC50 / 2D IC50” value at GluN1/GluN2D [5] stood at 42 fold. In addition, the “Selectivity 2B IC50 / 2D IC50” value at GluN1/GluN2D [5] amounted to 56 fold.
As for `O=C(N1N=C(c2c(-c3ccc(Cl)cc3)c3ccccc3[nH]c2=O)CC1c1ccc(Cl)cc1)C(F)(F)F` (stereo not drawn) [2j], the remaining activity at 30 µM stood at 100 ± 2.2% on GluN1/GluN2C [1], 86 ± 2.3% on GluN1/GluN2B [3], 86 ± 2.8% at GluN1/GluN2D [4] and 96 ± 2.1% on GluN1/GluN2A [6].
In the case of `O=C(O)CC(F)(F)C(=O)N1N=C(c2c(-c3ccc(Cl)cc3)c3ccccc3[nH]c2=O)C[C@@H]1c1ccc(Cl)cc1` [(R)-(+)-2i], the values for the IC50 at GluN1/GluN2C [1] and at GluN1/GluN2D [4] were 0.51 µM and 0.31 µM, respectively. Also, on GluN1/GluN2C [2] (tested at 3 μM), the “I3 μM/Icontrol GluN2C” value is given as 52 ± 2.1 (2, 12) %. On GluN1/GluN2B [7], the “I3 μM/Icontrol GluN2B” value is listed as 99 ± 2.4 (3, 12) %. Moreover, the “I3 μM/Icontrol GluN2D” value on GluN1/GluN2D [5] (tested at 3 μM, 100 μM glutamate, 30 μM glycine, mean ± SEM) was 42 ± 3.5 (2, 13) %. The “I3 μM/Icontrol GluN2A” value at GluN1/GluN2A [8] is recorded as 103 ± 2.5 (3, 16) %.
